# Where “and” joins values, the source holds several entries; their conditions need not be identical. Equal entries are not always repeated. Calls of active or inactive are those of the source.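 How the source made its calls: active means fitted curve reaches 40% activation below the top valid dose in every replicate test, signal rising; inconclusive means replicate tests disagree on the call; inactive means all replicate tests inactive, including opposite-direction effects.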
# Tested on: D54 ERlucT glioma cells, NLG luciferase reporter gain-of-signal, 24 h
# Experiment: luciferase reporter signal increase in glioma cells, dose response, N-linked glycosylation inhibitor project, D54 ERlucT glioma cells, dry powder, set 6 (AID 1053121)
# Settings: not given
row,SMILES,AC40
1,CN(C)S(=O)(=O)c1ccc(N2CCCC2)c(C(=O)Nc2nc3ccccc3s2)c1,467 nM
2,Cc1cnc(NC(=O)c2cc(S(=O)(=O)N3CCOCC3)ccc2N2CCCC2)s1,307 nM
3,Cc1cnc(NC(=O)c2cc(S(=O)(=O)N(C)C)ccc2N(C)C)s1,5200 nM
4,Cc1ccc(CCC(=O)Nc2ncc(Cc3cc(Cl)ccc3Cl)s2)o1,205 nM
5,Cc1cnc(NC(=O)c2cc(S(=O)(=O)N(C)C)ccc2N2CCC2)s1,364 nM
6,CCOc1ccc(S(=O)(=O)NCc2ccccn2)cc1NC(=O)c1ccccc1F,1370 nM
7,Cc1ccc2cc(CN(CCCN(C)C)C(=O)NCc3ccccc3)c(=O)[nH]c2c1C,2680 nM
8,Cc1cnc(NC(=O)c2cc(S(=O)(=O)N3CCCCC3)ccc2N2CCCC2)s1,7070 nM
9,CCN(CC)CCOc1ccc2c(c1)C(=NNC(=O)c1ccccn1)c1cc(OCCN(CC)CC)ccc1-2,3070 nM
10,CC(=O)N1CCC(=O)c2cc3ccccc3cc21,2420 nM
11,CCOc1ccc(NC(=O)c2cc(OC)nc3ccccc23)cc1,410 nM
12,Cc1cnc(NC(=O)c2cc(S(=O)(=O)N(C)C)ccc2N2CCCCC2)s1,13700 nM
13,Cc1csc(NC(=O)c2cc(S(=O)(=O)N(C)C)ccc2N2CCCC2)n1,575 nM
14,O=C(N/N=C/c1ccc(Cl)cc1)c1sccc1OCc1ccc(F)cc1,839 nM
15,Cc1nnc(NC(=O)c2cc(S(=O)(=O)N(C)C)ccc2N2CCCC2)s1,4570 nM
16,CCN(CC)S(=O)(=O)c1ccc(N2CCCC2)c(C(=O)Nc2ncc(C)s2)c1,12000 nM
17,Cc1cnc(NC(=O)c2cc(S(=O)(=O)N(C)C)ccc2N2CCCC2)s1,421 nM and 69.3 nM and 209 nM
18,CCN(CC)CCC(=O)Nc1cccc2c1C(=O)c1ccccc1C2=O,729 nM
19,Cc1cnc(NC(=O)c2cc(S(=O)(=O)N3CCNCC3)ccc2N2CCCC2)s1,9460 nM
20,COc1ccccc1OCC(=O)NNC(=O)c1ccoc1C,633 nM
21,CCn1c2ccccc2c2cc(NC(=O)c3cc(OC)c(OC)c(OC)c3)ccc21,41.9 nM
22,Cc1cccc(C)c1OCCNC(=O)C(=O)NCc1ccco1,3620 nM
23,CC(=O)c1cccc(NC(=O)CSc2ncc(C(=O)Nc3ccccc3)c(=O)n2C)c1,6870 nM
24,COc1cc(-c2nnc(SCC3(c4ccc(Br)cc4)OCCO3)o2)cc(OC)c1OC,1340 nM
25,CCCOC(=O)c1[nH]c2c(c1C)C(=O)CC(c1cccs1)C2 (configuration not stated),1500 nM
26,CCC1=Nc2cc(C(=O)NCCCOC)ccc2Sc2ccccc21,404 nM
27,COc1cc(Nc2c3c(nc4ccccc24)CCCC3)cc(OC)c1OC,3590 nM

row,SMILES,AC40
1,Cc1cc(C)cc(C(=O)N2CC(=O)Nc3ccccc32)c1,12100 nM
2,CCOC(=O)c1ccc(Oc2cc(C)nc(SC)n2)cc1,3890 nM
3,Cc1ccc(C(=O)c2cc([N+](=O)[O-])ccc2N2CCOCC2)cc1C,1100 nM
4,COc1ccc(NC(=O)C(=O)c2cn(CC(=O)N3CCCC3)c3ccccc23)cc1,62.1 nM
5,Cc1ccc(NC(=O)c2cc(S(=O)(=O)N(C)C)ccc2N2CCCC2)cc1,1240 nM
6,CCCCOc1ccccc1C1CC(=O)NC2=C1C(=O)CCC2 (configuration not stated),948 nM
7,CN(C)S(=O)(=O)c1ccc(N2CCCC2)c(C(=O)Nc2ccccc2)c1,1080 nM
8,Cc1cnc(NC(=O)c2cc(S(=O)(=O)NCc3ccccc3)ccc2N2CCCC2)s1,3670 nM
9,CCOC(=O)COc1cccc2c(=O)n(CC(=O)NCc3ccccc3)ccc12,121 nM
10,CN(C)S(=O)(=O)c1ccc(N2CCCC2)c(C(=O)Nc2cccc(F)c2)c1,2610 nM
11,CN(C)S(=O)(=O)c1ccc(N2CCCC2)c(C(=O)Nc2nccs2)c1,1910 nM
12,COc1cccc(N2CCN(C(=O)c3ccc(CS(=O)c4ccc(C)cc4)o3)CC2)c1 (configuration not stated),237 nM
13,COc1cc(C(=O)NCCOc2cc(C)cc(C)c2)cc(OC)c1OC,1850 nM
14,COc1ccc(NC(=O)c2cc(S(=O)(=O)N(C)C)ccc2N2CCCC2)cc1,10300 nM
15,CCN(CC)CCCNc1nc2cc(OC)c(OC)cc2c2nc(-c3ccccc3)nn12,1660 nM
16,Cc1cnc(NC(=O)c2cc(S(=O)(=O)N3CCCC3)ccc2N2CCCC2)s1,934 nM
17,Cc1cc(NC(=O)CSc2nc(-c3ccco3)cc(C(F)(F)F)n2)no1,434 nM
18,COC(=O)c1cn(C(=O)c2ccc(OC)cc2)c2ccccc12,1210 nM
19,Cc1cnc(NC(=O)c2cc(S(=O)(=O)N(C)C)ccc2C2CCCC2)s1,2210 nM
20,Cc1[nH][nH]c(=O)c1C(c1ccc(-c2ccc(Cl)c(Cl)c2)o1)c1c(C)[nH][nH]c1=O,1020 nM
21,CCN(CC)c1ccc(S(=O)(=O)N(C)C)cc1C(=O)Nc1ncc(C)s1,3210 nM
22,CC(=O)c1ccc(Oc2cc(C)nc(-n3nc(C)cc3C)n2)cc1,645 nM
23,Cc1ccc(Oc2ccc(S(=O)(=O)N3CCOCC3)cc2C(N)=O)c(-n2nc3ccccc3n2)c1,3400 nM
24,CC(=O)N[C@H]1[C@@H](O[C@@H]2OC(C[C@@H](O)C3O[C@@H](n4ccc(=O)[nH]c4=O)[C@H](O)[C@@H]3O)[C@H](O)[C@H](O)[C@H]2NC(=O)/C=C/CCCCCCCCCCC(C)C)O[C@H](CO)[C@@H](O)[C@@H]1O (some centres not stated),278 nM
25,Cc1ccc(/C=N/NC(=O)C2COc3ccccc3O2)s1 (configuration not stated),1210 nM
26,Nc1nc(=S)c2ncn([C@@H]3O[C@H](CO)[C@@H](O)[C@H]3O)c2[nH]1,771 nM

# Tested on: not listed separately
# Experiment: as above
# Settings: D54 ERlucT glioma cells, NLG luciferase reporter gain-of-signal, 24 h; at 19.5 µM (top of the series)
row,SMILES,activation (reporter increase)
1,CN(C)S(=O)(=O)c1ccc(N2CCCC2)c(C(=O)N2CCOCC2)c1,3.4% (inactive)
2,Cc1nc(NC(=O)c2cc(S(=O)(=O)N(C)C)ccc2N2CCCC2)n[nH]1,14.6% (inactive)
3,COc1cccc2sc(NC(=O)c3cc(S(=O)(=O)N(C)C)ccc3N3CCCC3)nc12,5.88% (inactive)
4,CN(C)S(=O)(=O)c1ccc(N2CCCC2)c(C(=O)NC2CCCCC2)c1,-20% (inactive)
5,Cc1cc(C)nc(/N=C(\N)Nc2ccc(OCc3ccccc3)cc2)n1,-50% (inactive)
6,O=C(Cc1ccccc1)c1nnc(-c2ccccc2)o1,-94.1% (inactive)
7,CN(C)C(=O)c1cc(S(=O)(=O)N(C)C)ccc1N1CCCC1,8.83% (inactive)
8,O=C1CCN(Cc2ccccc2)c2cc3ccccc3cc21,30.6% (inactive)
9,COc1ccccc1-c1nnc(SCc2ccccc2)o1,-20.7% (inactive)
10,CN(C)CCCN(Cc1cc2ccccc2[nH]c1=O)C(=O)NCc1ccccc1,0% (inactive)
11,CCCNS(=O)(=O)c1cccc(C(=O)OCc2cc(=O)oc3cc(OC)ccc23)c1,-91.2% (inactive)
12,CN(C)S(=O)(=O)c1ccc(N2CCCC2)c(C(=O)Nc2cccnc2)c1,48.4% (inactive)
13,CN(C)S(=O)(=O)c1ccc(N2CCCC2)c(C(=O)Nc2ccncc2)c1,16.1% (inactive)
14,COc1ccc(-c2nnc(SCc3ccccc3)o2)cc1,-91.2% (inactive)
15,COc1ccc(CSc2nnc(-c3ccccc3)o2)cc1,-76.5% (inactive)
16,CN(C)S(=O)(=O)c1ccc(N2CCCC2)c(C(=O)Nc2ccccc2F)c1,-4.62% (inactive)
17,COc1ccccc1CSc1nnc(-c2ccccc2)o1,-67.6% (inactive)

row,SMILES,activation (reporter increase)
1,C/C(=N\NC(=O)c1c([N+](=O)[O-])c(C)nn1C)c1ccc(NC(=O)C2CCCC2)cc1,-76.5% (inactive)
2,Brc1ccc(CSc2nnc(-c3ccccc3)o2)cc1,-58.8% (inactive)
3,c1ccc(CSc2nnc(-c3ccccc3)o2)cc1,-94.1% (inactive)
4,CN(C)S(=O)(=O)c1ccc(N2CCCC2)c(C(=O)Nc2ccccc2Cl)c1,5.18% (inactive)
5,Cc1cnc(NC(=O)c2cccc(S(=O)(=O)N(C)C)c2)s1,-7.17% (inactive)
6,Cc1cnc(NC(=O)c2cc(S(=O)(=O)N(C)c3ccccc3)ccc2N2CCCC2)s1,10.9% (inactive)
7,COc1ccccc1NC(=O)c1cc(S(=O)(=O)N(C)C)ccc1N1CCCC1,30.1% (inactive)
8,O=C1CCNc2cc3ccccc3cc21,-83.9% (inactive)
9,CN(C)CCCN(Cc1cc2ccccc2[nH]c1=O)C(=O)Nc1ccccc1,-2.22% (inactive)
10,Cc1ccc2cc(CN(CCCN(C)C)C(=O)Nc3ccccc3)c(=O)[nH]c2c1C,-11.1% (inactive)
11,COc1ccc2c(COC(=O)c3cccc(S(=O)(=O)NCC(C)C)c3)cc(=O)oc2c1,19.5% (inactive)
12,COc1ccc2sc(NC(=O)c3cc(S(=O)(=O)N(C)C)ccc3N3CCCC3)nc2c1,29.4% (inactive)
13,Cc1ccccc1NC(=O)c1cc(S(=O)(=O)N(C)C)ccc1N1CCCC1,8.74% (inactive)
14,CN(C)S(=O)(=O)c1ccc(N2CCCC2)c(C(=O)Nc2ccc(Br)cc2)c1,32% (inactive)
15,Cc1cnc(NC(=O)c2cc(S(=O)(=O)N(C)C)ccc2N2CCNCC2)s1,-10.1% (inactive)
16,Cc1cnc(NC(=O)c2cc(S(=O)(=O)N(CC(C)C)CC(C)C)ccc2N2CCCC2)s1,-35.5% (inactive)
17,Cc1cc(=O)[nH]c(N/N=C/c2cc(C)n(CC(F)(F)F)c2C)n1,-91.2% (inactive)

# Reference: PubChem BioAssay AID1053121 (Broad Institute, 2014)
